Measured values from US9085576B2 (AMGEN INC., priority 2013, dated 2015).
Structures can show the parent of a compound that is named as a salt.

Assays:
BACE = BACE (Homo sapiens (Human), UniProt P56817); experiment: In vitro BACE cell-based assay (Aβ40 in conditioned medium, sandwich ELISA)
Cathepsin D (Cat D) = Cathepsin D (Cat D) (Homo sapiens (Human), UniProt P07339); experiment: In vitro enzymatic Cathepsin D (Cat D) FRET assay; type: biochemical; details: read-out: CatD IC50
[1] = target: Beta Secretase enzyme (BACE) (Homo sapiens (Human), UniProt P56817); experiment: In vitro enzymatic BACE FRET assay; type: biochemical; details: read-out: BACE1 Enzyme assay IC50
Beta Secretase enzyme (BACE), sequence (P56817 46-501): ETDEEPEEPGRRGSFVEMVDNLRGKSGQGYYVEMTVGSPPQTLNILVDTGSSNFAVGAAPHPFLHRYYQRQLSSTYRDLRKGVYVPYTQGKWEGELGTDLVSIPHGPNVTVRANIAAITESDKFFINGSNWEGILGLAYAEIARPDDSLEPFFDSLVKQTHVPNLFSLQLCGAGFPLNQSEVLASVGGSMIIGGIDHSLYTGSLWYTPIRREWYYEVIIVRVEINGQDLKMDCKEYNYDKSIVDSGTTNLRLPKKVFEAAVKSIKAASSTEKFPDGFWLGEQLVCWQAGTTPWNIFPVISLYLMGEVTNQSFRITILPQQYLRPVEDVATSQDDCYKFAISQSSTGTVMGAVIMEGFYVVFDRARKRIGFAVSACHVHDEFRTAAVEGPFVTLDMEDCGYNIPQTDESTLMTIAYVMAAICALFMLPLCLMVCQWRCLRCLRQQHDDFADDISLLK

Cathepsin D (Cat D), sequence (P07339 65-412, species assumed): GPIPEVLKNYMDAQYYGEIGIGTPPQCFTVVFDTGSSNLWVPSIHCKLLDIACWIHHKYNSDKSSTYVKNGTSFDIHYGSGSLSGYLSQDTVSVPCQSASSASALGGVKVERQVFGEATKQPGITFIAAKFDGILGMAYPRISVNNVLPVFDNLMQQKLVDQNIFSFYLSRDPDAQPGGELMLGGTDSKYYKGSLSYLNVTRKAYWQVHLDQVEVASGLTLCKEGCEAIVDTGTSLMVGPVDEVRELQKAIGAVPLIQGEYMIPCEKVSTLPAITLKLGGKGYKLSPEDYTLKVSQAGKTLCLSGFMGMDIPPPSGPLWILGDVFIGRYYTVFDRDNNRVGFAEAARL
BACE, sequence (P56817 46-501, species assumed): as the sequence (P56817 46-501) above

IC50 (BACE) | IC50 (Cathepsin D (Cat D)) | IC50 [1] | SMILES
> 15.6 µM | 396 µM | 28.3 µM | Cc1cc(OC(F)F)cnc1C(=O)Nc1cc(F)c(Cl)c([C@]2(CF)N=C(N)O[C@H]3C[C@H]32)c1 [Example 157, N-(3-((1S,5R,6S)-3-amino-5-(fluoromethyl)-2-oxa-4-azabicyclo[4.1.0]hept-3-en-5-yl)-4-chloro-5-fluorophenyl)-5-(difluoromethoxy)-3-methylpicolinamide]
1.41 µM | 667 µM | 3.44 µM | COc1ccc(C(=O)Nc2ccc(F)c([C@@]3(C(F)F)N=C(N)O[C@@H]4C[C@@H]43)c2)nn1 [Example 187, N-(3-((1R,5S,6R)-3-amino-5-(difluoromethyl)-2-oxa-4-azabicyclo[4.1.0]hept-3-en-5-yl)-4-fluorophenyl)-6-methoxypyridazine-3-carboxamide]
0.703 µM | 1320 µM | 2.14 µM | C[C@@]1(c2nc(NC(=O)c3ccc(Cl)cn3)ccc2F)N=C(N)O[C@H]2C[C@H]21 [Example 327, N-(6-((1S,5R,6S)-3-amino-5-methyl-2-oxa-4-azabicyclo[4.1.0]hept-3-en-5-yl)-5-fluoropyridin-2-yl)-5-chloropicolinamide]
0.331 µM | 274 µM | 0.115 µM | NC1=N[C@](c2cc(NC(=O)c3ccc(Cl)cn3)cnc2F)(C(F)F)[C@@H]2C[C@@H]2O1 (racemic) [Example 73, N-(5-([1(R,S),5(S,R),6(R,S)]-3-amino-5-(difluoromethyl)-2-oxa-4-azabicyclo[4.1.0]hept-3-en-5-yl)-6-fluoropyridin-3-yl)-5-chloropicolinamide]
0.0505 µM | 1280 µM | 0.0371 µM | NC1=N[C@@](c2cc(NC(=O)c3ccc(Cl)cn3)ccc2Cl)(C(F)F)[C@H]2C[C@H]2O1 (racemic) [Example 97, N-(3-(((1R,S), (5S,R), (6R,S))-3-amino-5-(difluoromethyl)-2-oxa-4-azabicyclo[4.1.0]hept-3-en-5-yl)-4-chlorophenyl)-5-chloropicolinamide trifluoroacetate]
2.38 µM | 577 µM | 0.0616 µM | Cc1nc(Cl)cnc1C(=O)Nc1ccc(F)c([C@@]2(C(F)F)N=C(N)O[C@@H]3C[C@@H]32)c1 (stereo in doubt) [Example 53, N-(3-((1R,5S,6R)-3-amino-5-(difluoromethyl)-2-oxa-4-azabicyclo[4.1.0]hept-3-en-5-yl)-4-fluorophenyl)-5-chloro-3-methylpyrazine-2-carboxamide]
0.0574 µM | 763 µM | 0.121 µM | COc1cnc(C(=O)Nc2ccc(F)c([C@@]3(C(F)F)N=C(N)O[C@@H]4C[C@@H]43)c2)nc1 [Example 103, N-(3-((1R,5S,6R)-3-amino-5-(difluoromethyl)-2-oxa-4-azabicyclo[4.1.0]hept-3-en-5-yl)-4-fluorophenyl)-5-methoxypyrimidine-2-carboxamide]
0.0116 µM | 206 µM | 0.0151 µM | Cc1cc(C(F)(F)F)cnc1C(=O)Nc1ccc(Cl)c([C@@]2(C(F)F)N=C(N)O[C@@H]3C[C@@H]32)c1 [Example 217, N-(3-((1R,5S,6R)-3-amino-5-(difluoromethyl)-2-oxa-4-azabicyclo[4.1.0]hept-3-en-5-yl)-4-chlorophenyl)-3-methyl-5-(trifluoromethyl) picolinamide]
1.91 µM | 516 µM | 6.5 µM | NC1=NC(CF)(c2cc(NC(=O)c3ccc(Br)cn3)cc(F)c2F)[C@@H]2C[C@@H]2O1 (stereo in doubt) [Example 40, N-(3-((1S,5S,6S)-3-amino-5-(fluoromethyl)-2-oxa-4-azabicyclo[4.1.0]hept-3-en-5-yl)-4,5-difluorophenyl)-5-bromopicolinamide]
0.122 µM | 596 µM | 0.224 µM | COc1cnc2c(Nc3ccc(F)c([C@@]4(C(F)F)N=C(N)O[C@@H]5C[C@@H]54)c3)ncnc2c1 [Example 364, (1R,5S,6R)-5-(difluoromethyl)-5-(2-fluoro-5-((7-methoxypyrido[3,2-d]pyrimidin-4-yl)amino)phenyl)-2-oxa-4-azabicyclo[4.1.0]hept-3-en-3-amine]
0.152 µM | 1700 µM | 0.195 µM | NC1=N[C@@](c2cc(NC(=O)c3csc(C(F)F)n3)ccc2F)(C(F)F)[C@H]2C[C@H]2O1 [Example 149, N-(3-((1R,5S,6R)-3-amino-5-(difluoromethyl)-2-oxa-4-azabicyclo[4.1.0]hept-3-en-5-yl)-4-fluorophenyl)-2-(difluoromethyl)thiazole-4-carboxamide]
0.0046 µM | 174 µM | 0.018 µM | NC1=N[C@](CF)(c2cc(NC(=O)c3nn(C(F)F)cc3Cl)cc(F)c2F)[C@H]2C[C@H]2O1 [Example 46, N-(3-((1R,5S,6R)-3-amino-5-(fluoromethyl)-2-oxa-4-azabicyclo[4.1.0]hept-3-en-5-yl)-4,5-difluorophenyl)-4-chloro-1-(difluoromethyl)-1H-pyrazole-3-carboxamide]
0.0584 µM | 99.8 µM | 0.0637 µM | COc1cnc(C(=O)Nc2ccc(F)c([C@@]3(C(F)F)N=C(N)O[C@@H]4C[C@@H]43)c2)c(C)n1 [Example 63, N-(3((1R,5S,6R)-3-amino-5-(difluoromethyl)-2-oxa-4-azabicyclo[4.1.0]hept-3-en-5-yl)-4-fluorophenyl)-5-methoxy-3-methylpyrazine-2-carboxamide]
0.0208 µM | 1090 µM | 0.0706 µM | COc1cc(C#N)cnc1C(=O)Nc1cc(C)c(F)c([C@@]2(C(F)F)N=C(N)O[C@@H]3C[C@@H]32)c1 [Example 399, N-(3-((1R,5S,6R)-3-amino-5-(difluoromethyl)-2-oxa-4-azabicyclo[4.1.0]hept-3-en-5-yl)-4-fluoro-5-methylphenyl)-5-cyano-3-methoxypicolinamide]
0.0431 µM | 860 µM | 0.0362 µM | NC1=N[C@](c2cc(NC(=O)c3ccc(Cl)cn3)ccc2F)(C(F)F)[C@@H]2C[C@@H]2O1 (racemic) [Example 55, N-(3-([1(R,S),5(S,R),6(R,S)]-3-amino-5-(difluoromethyl)-2-oxa-4-azabicyclo[4.1.0]hept-3-en-5-yl)-4-fluorophenyl)-5-chloropicolinamide]
0.279 µM | 690 µM | 0.3 µM | NC1=N[C@@](c2cc(NC(=O)c3ccccn3)ccc2F)(C(F)F)[C@H]2C[C@H]2O1 [Example 292, N-(3-((1R,5S,6R)-3-amino-5-(difluoromethyl)-2-oxa-4-azabicyclo[4.1.0]hept-3-en-5-yl)-4-fluorophenyl) picolinamide]
0.024 µM | 244 µM | 0.0057 µM | CC#CCOc1ccc(C(=O)Nc2ccc(F)c([C@@]3(C(F)F)N=C(N)O[C@@H]4C[C@@H]43)c2)nc1 [Example 233, N-(3-((1R,5S,6R)-3-amino-5-(difluoromethyl)-2-oxa-4-azabicyclo[4.1.0]hept-3-en-5-yl)-4-fluorophenyl)-5-(but-2-yn-1-yloxy)picolinamide]
0.0067 µM | 373 µM | 0.034 µM | COc1cnc(C(=O)Nc2cc(Cl)c(F)c([C@@]3(CF)N=C(N)O[C@@H]4C[C@@H]43)c2)cn1 [Example 85, N-(3-((1R,5S,6R)-3-amino-5-(fluoromethyl)-2-oxa-4-azabicyclo[4.1.0]hept-3-en-5-yl)-5-chloro-4-fluorophenyl)-5-methoxypyrazine-2-carboxamide]
0.0014 µM | 41 µM | 0.0028 µM | C#CCOc1cnc(C(=O)Nc2cc(F)c(Cl)c([C@@]3(CF)N=C(N)O[C@@H]4C[C@@H]43)c2)cn1 [Example 317, N-(3-((1R,5S,6R)-3-amino-5-(fluoromethyl)-2-oxa-4-azabicyclo[4.1.0]hept-3-en-5-yl)-4-chloro-5-fluorophenyl)-5-(prop-2-yn-1-yloxy)pyrazine-2-carboxamide]
0.0403 µM | 1280 µM | 0.0389 µM | NC1=N[C@@](c2cc(NC(=O)c3ncc(Cl)cc3F)ccc2F)(C(F)F)[C@H]2C[C@H]2O1 [Example 129]
0.0116 µM | 512 µM | 0.103 µM | C[C@]1(c2nc(NC(=O)c3ncc(Cl)cc3Cl)ccc2F)N=C(N)O[C@@H]2C[C@@H]21 [Example 328, N-(6-((1R,5S,6R)-3-amino-5-methyl-2-oxa-4-azabicyclo[4.1.0]hept-3-en-5-yl)-5-fluoropyridin-2-yl)-3,5-dichloropicolinamide]
0.0606 µM | 383 µM | 0.0192 µM | NC1=N[C@@](c2cc(NC(=O)c3cnc(OCc4nccs4)cn3)ccc2F)(C(F)F)[C@H]2C[C@H]2O1 [Example 165, N-(3-((1R,5S,6R)-3-amino-5-(difluoromethyl)-2-oxa-4-azabicyclo[4.1.0]hept-3-en-5-yl)-4-fluorophenyl)-5-(thiazol-2-ylmethoxy)pyrazine-2-carboxamide]
> 15.6 µM | 1750 µM | 26.6 µM | Cc1cc(C#N)cnc1C(=O)Nc1cc(F)c(F)c([C@@]2(CF)N=C(N)O[C@@H]3C[C@@H]32)c1 (stereo in doubt) [Example 50]
0.0192 µM | 1560 µM | 0.0568 µM | N#Cc1ccc(C(=O)Nc2ccc(Cl)c([C@@]3(CF)N=C(N)O[C@@H]4C[C@@H]43)c2)nc1 [Example 277, N-(3-((1R,5S,6R)-3-amino-5-(fluoromethyl)-2-oxa-4-azabicyclo[4.1.0]hept-3-en-5-yl)-4-chlorophenyl)-5-cyanopicolinamide]
0.0418 µM | 582 µM | 0.0366 µM | NC1=N[C@@](c2cc(NC(=O)c3cnc(OCc4cscn4)cn3)ccc2F)(C(F)F)[C@H]2C[C@H]2O1 [Example 169, N-(3-((1R,5S,6R)-3-amino-5-(difluoromethyl)-2-oxa-4-azabicyclo[4.1.0]hept-3-en-5-yl)-4-fluorophenyl)-5-(thiazol-4-ylmethoxy)pyrazine-2-carboxamide]
